Patent US20230028441A1, “NOVEL HETEROARYL-TRIAZOLE COMPOUNDS AS PESTICIDES” (Bayer Aktiengesellschaft, priority 2019, published 2023)

Experiments:
Type in all cases: in vivo
[1] = system: adult unfed cat fleas (Ctenocephalides felis); experiment: Ctenocephalides felis oral test; conditions: 48 h, 100 ppm in cattle blood, after 2 days
Protocol: (§1) Solvent: dimethyl sulfoxide
To produce a suitable preparation of active compound, 10 mg of active compound are dissolved in 0.5 mL solvent, and the concentrate is diluted with cattle blood to the desired concentration.
Approximately 20 adult unfed cat fleas (Ctenocephalides felis) are placed in flea chambers. The blood chamber, sealed with parafilm on the bottom, are filled with cattle blood supplied with compound solution and placed on the gauze covered top of the flea chamber, so that the fleas are able to suck the blood. The blood chamber is heated to 37° C. whereas the flea chamber is kept at room temperature.
After 2 days mortality in % is determined. 100% means all the fleas have been killed; 0% means none of the fleas have been killed.

[2] = system: green peach aphid (Myzus persicae); experiment: Myzus persicae oral test; conditions: 120 h
Protocol: Solvent: 100 parts by weight acetone
To produce a suitable preparation of active compound, 1 part by weight of active compound is mixed with the stated amount of solvent, and the concentrate is diluted with water to the desired concentration.
50 μL compound solution is filled in microtiter plates and 150 μL IPL41 insect medium (33%+15% sugar) is added to obtain a total volume of 200 μL per well. Afterwards the plates are sealed with parafilm through which a mixed population of the green peach aphid (Myzus persicae) can suck on the compound preparation.
After 5 days mortality in % is determined. 100% means all aphids have been killed and 0% means none of the aphids have been killed.

[3] = system: adult engorged female ticks (Rhipicephalus microplus); experiment: Rhipicephalus (Boophilus) microplus injection test; conditions: 168 h, egg deposition after 7 days, read-out: efficacy (infertile eggs); for pest or weed control at 0.004 mg: 4 μg/animal; for pest or weed control at 0.02 mg: 20 μg/animal
Protocol: as §1
To produce a suitable preparation of active compound, 10 mg of active compound are dissolved in 0.5 mL solvent, and the concentrate is diluted with solvent to the desired concentration.
Five adult engorged female ticks (Rhipicephalus microplus) are injected with 1 μL compound solution into the abdomen. The ticks are transferred into replica plates and incubated in a climate chamber.
After 7 days egg deposition of fertile eggs is monitored. Eggs where fertility is not visible are stored in a climate chamber till hatching after about 42 days. An efficacy of 100% means all eggs are infertile; 0% means all eggs are fertile.

[4] = system: fall armyworm larvae (Spodoptera frugiperda); experiment: Spodoptera frugiperda spray test (maize leaf sections); conditions: 168 h
Protocol: Solvent: 78.0 parts by weight acetone • 1.5 parts by weight dimethylformamide
(§2) Emulsifier: alkylarylpolyglycol ether
(§3) To produce a suitable preparation of active compound, 1 part by weight of active compound is mixed with the stated amount of solvents and is diluted with water, containing an emulsifier concentration of 1000 ppm, to the desired concentration. Further test concentrations are prepared by dilution with emulsifier containing water.
Maize (Zea mays) leaf sections are sprayed with a preparation of the active ingredient of the desired concentration. Once dry, the leaf sections are infested with fall armyworm larvae (Spodoptera frugiperda).
After 7 days mortality in % is determined. 100% means all caterpillars have been killed and 0% means none of the caterpillars have been killed.

[5] = system: adult brown dog ticks (Rhipicephalus sanguineus); experiment: Rhipicephalus sanguineus in-vitro contact test with adult brown dog ticks; conditions: 1 μg/cm^2 (=100 g/ha), after 48 hours, read-out: efficacy (ticks dead or moribund)
Protocol: (§4) 9 mg compound is solved in 1 mL acetone and diluted with acetone to the desired concentration. 250 μL of the test solution is filled in 25 mL glass test tubes and homogeneously distributed on the inner walls by rotation and tilting on a shaking device (2 h at 30 rpm). With a compound concentration of 900 ppm, an inner surface of 44.7 cm^2 and a homogeneous distribution, a dose of 5 μg/cm^2 is achieved.
After the solvent has evaporated, each test tube is filled with 5-10 adult brown dog ticks (Rhipicephalus sanguineus), closed with a perforated lid and incubated in a lying position at room temperature and relative humidity. After 48 hours efficacy is determined. The ticks are patted on the ground of the tubes and are incubated on a heating plate at 45-50° C. for at most 5 minutes. Immotile or uncoordinated moving ticks, which are not able to escape the heat by climbing upwards, are marked as dead or moribund.
An efficacy of 100% means all ticks are dead or moribund; 0% means no ticks are dead or moribund.

[6] = system: cattle tick larvae (Rhipicephalus microplus), strain Parkhurst, resistant against synthetic pyrethroids; experiment: Rhipicephalus (Boophilus) microplus in-vitro contact test, larval cattle tick; conditions: 5 μg/cm^2 (=500 g/ha), after 48 hours, read-out: efficacy (larvae dead or moribund)
Protocol: as §4
After the solvent has evaporated, each test tube is filled with 20-50 cattle tick larvae (Rhipicephalus microplus), closed with a perforated lid and incubated in a horizontal position at 85% relative humidity and 27° C. in an incubator. After 48 hours efficacy is determined. The larvae are patted on the ground of the tubes and negative geotactic behaviour is recorded.
An efficacy of 100% means all larvae are dead or moribund; 0% means no larvae are dead or moribund.

[7] = system: larvae of the southern green stink bug (Nezara viridula); experiment: Nezara viridula spray test; conditions: in Hordeum vulgare, 96 h
Protocol: (§5) Solvent: 78.0 parts by weight of acetone • • 1.5 parts by weight of dimethylformamide
as §2
as §3, with “solvent,” for “solvents”, “and the concentrate” for “and”
Barley plants (Hordeum vulgare) infested with larvae of the southern green stink bug (Nezara viridula) are sprayed with a test solution containing the desired concentration of the active ingredient.
After 4 days mortality in % is determined. 100% means all the stink bugs have been killed; 0% means none of the stink bugs have been killed.

[8] = system: larvae of the banded cucumber beetle (Diabrotica balteata); experiment: Diabrotica balteata spray test; conditions: 168 h, 100 g/ha (=32 μg/well), after 7 days, wheat seeds, read-out: efficacy (seedlings grown up)
Protocol: as §5, §2
as §3, with “solvent,” for “solvents”, “and the concentrate” for “and”
Soaked wheat seeds (Triticum aestivum) are placed in a multiple well plate filled with agar and some water and are incubated for 1 day to germinate (5 seeds per well). The germinated wheat seeds are sprayed with a test solution containing the desired concentration of the active ingredient. Afterwards each unit is infected with 10-20 larvae of the banded cucumber beetle (Diabrotica balteata).
After 7 days efficacy in % is determined. 100% means all the seedlings have grown up like in the untreated, uninfected control; 0% means none of the seedlings have grown.

| Structure (SMILES) | mortality at 100 ppm [1] [%] | mortality at 4 ppm [2] [%] | pest or weed control at 0.004 mg [3] [%] | pest or weed control at 0.02 mg [3] [%] | mortality at 100 g/ha [4] [%] | pest or weed control at 1 µg/cm2, 100 g/ha [5] [%] | pest or weed control at 5 µg/cm2 [6] [%] | mortality at 100 g/ha [7] [%] | mortality at 500 g/ha [7] [%] | pest or weed control at 32 µg/disc, 100 g/ha [8] [%] |
| --- | --- | --- | --- | --- | --- | --- | --- | --- | --- | --- |
| CC(NC(=O)c1cncc(C(F)(F)F)c1)c1nc(-c2ncccn2)nn1-c1ncccn1 (stereo not shown) [I-053] | 100 | 90 |  |  |  |  |  |  |  |  |
| CC(NC(=O)c1cc(Cl)cc(S(C)(=O)=O)c1)c1nc(-c2ccco2)nn1-c1ncccn1 (stereo not shown) [I-057] | 100 | 100 | 80 | 100 |  |  |  |  |  |  |
| CC(NC(=O)c1cc(Br)cc(C(F)(F)F)c1)c1nc(N)nn1-c1ncccn1 (stereo not shown) [I-093] | 90 | 100 | 100 |  | 83 | 80 | 100 |  |  |  |
| CC(NC(=O)c1cc(Cl)cc(S(C)(=O)=O)c1)c1nc(NC(=O)C2(Cl)CC2)nn1-c1ncccn1 (stereo not shown) [I-020] | 100 | 90 | 100 |  |  |  |  |  |  |  |
| CC(NC(=O)c1cc(Cl)cc(S(C)(=O)=O)c1)c1nc(CS(C)(=O)=O)nn1-c1ccc(Cl)cn1 (stereo not shown) [I-027, 3-chloro-N-[1-[2-(5-chloro-2-pyridyl)-5-(methylsulfonylmethyl)-1,2,4-triazol-3-yl]ethyl]-5-methylsulfonyl-benzamide] | 100 | 100 | 80 | 100 |  |  | 90 | 100 | 100 |  |
| CC(NC(=O)c1cc(Cl)cc(S(C)(=O)=O)c1)c1nc(S(C)(=O)=O)nn1-c1ccc(Cl)cn1 (racemic) [I-060, 3-chloro-N-[1-[2-(5-chloro-2-pyridyl)-5-methylsulfonyl-1,2,4-triazol-3-yl]ethyl]-5-methylsulfonyl-benzamide] |  | 100 | 100 | 100 |  |  |  | 100 | 100 |  |
| CC(Cl)C(=O)Nc1nc(C(C)NC(=O)c2cc(Cl)cc(S(C)(=O)=O)c2)n(-c2ncccn2)n1 (stereo not shown) [I-019] | 100 | 90 | 100 |  |  |  |  | 90 |  |  |
| CC(NC(=O)c1cc(Cl)cc(S(C)(=O)=O)c1)c1nc(NS(C)(=O)=O)nn1-c1ccc(Cl)cn1 (racemic) [I-025, 3-chloro-N-[1-[2-(5-chloro-2-pyridyl)-5-(methanesulfonamido)-1,2,4-triazol-3-yl]ethyl]-5-methylsulfonyl-benzamide] |  | 90 |  |  |  |  |  |  |  |  |
| CC(NC(=O)c1cc(Cl)cc(C(F)(F)F)c1)c1nc(C(N)=O)nn1-c1ncccn1 (single isomer, unassigned) [I-074, 5-[1-[[3-chloro-5-(trifluoromethyl)benzoyl]amino]ethyl]-1-pyrimidin-2-yl-1,2,4-triazole-3-carboxamide] | 100 | 100 | 100 |  |  |  |  | 100 |  |  |
| CC(NC(=O)c1cc(Cl)cc(Br)c1)c1nc(N)nn1-c1ncccn1 (stereo not shown) [I-108] |  | 100 |  |  | 100 |  | 90 |  |  | 100 |
